Laboratory results as given in PubChem BioAssay (NCI).
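Growth conditions: 96-well plates. Treatment: test compound, 48 hours, 5 concentrations. Analysis: linear interpolation between bracketing concentrations; unreached endpoints set to highest concentration. GI50 is the concentration that inhibits growth by half. TGI marks complete inhibition of growth.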

What was measured:
Assay in all cases: NCI tumour cell line growth inhibition, 48 h
MDA-N = test system: MDA-N
HOP-18 NSCLC = test system: HOP-18 NSCLC
LXFL 529 NSCLC = test system: LXFL 529 NSCLC
M19-MEL melanoma = test system: M19-MEL melanoma
KM20L2 colon = test system: KM20L2 colon
XF 498 CNS = test system: XF 498 CNS
P388/ADR leukemia = test system: P388/ADR leukemia
SN12K1 renal = test system: SN12K1 renal
P388 leukemia = test system: P388 leukemia
RXF-631 renal = test system: RXF-631 renal

Structure (SMILES)	TGI (MDA-N)	TGI (HOP-18 NSCLC) [µM]	TGI (LXFL 529 NSCLC) [µM]	TGI (M19-MEL melanoma) [µM]	TGI (KM20L2 colon) [µM]	TGI (XF 498 CNS) [µM]	also measured
OCCN(CO)CO	> 100 µM	–	–	–	–	–	–
Nc1ncc2ncn(C3CCC(CO)O3)c2n1 (stereo not drawn)	> 100 µM	–	–	–	–	–	–
C1=CC2CCC1CN2CCC1CNc2ccccc21 (stereo not drawn)	–	> 100	> 100	> 100	> 100	> 100	–
CCCCC1(C(NC(=O)c2ccccc2Cl)c2ccncc2)C(=O)N(c2ccccc2)N(c2ccccc2)C1=O (stereo not drawn)	–	> 100	> 100	> 100	> 100	> 100	–
COc1ccc(/C=N/NS(=O)(=O)c2ccccc2)cc1	–	> 100	> 100	> 100	> 100	> 100	–
COc1ccc(Br)c(C(=O)N2CCc3ccccc32)c1N	–	> 100	> 100	> 100	> 100	> 100	–
CC1(C)OC(=O)C(=C2CCC(C(=O)Nc3cccc(C(F)(F)F)c3)N2)C(=O)O1 (stereo not drawn)	–	> 100	> 100	> 100	> 100	89.8	–
CNC(=O)OCc1nc(SC)n(C)c1COC(=O)NC	310 µM	491	–	369	482	446	TGI (P388/ADR leukemia): 611 µM; TGI (SN12K1 renal): 250 µM; TGI (P388 leukemia): 331 µM
O=C(/C=C/c1ccccc1O)c1ccccc1Cl	–	> 100	> 100	> 100	> 100	> 100	TGI (RXF-631 renal): > 100 µM
Clc1ccc(CN2CCCN(Cc3ccc(Cl)cc3)C2c2cc3ccccc3c3ccccc23)cc1	> 100 µM	–	–	–	–	–	–
COc1ccccc1C(=O)N(Cc1ccccc1)c1ccc(Cl)c(C(=O)OC(C)C)c1	> 100 µM	56.3	> 100	> 100	> 100	43.4	TGI (RXF-631 renal): > 100 µM
CC(=O)OCC1OC(n2c3c(cc(C#N)c2=S)CCCC3)C(OC(C)=O)C(OC(C)=O)C1OC(C)=O (stereo not drawn)	> 100 µM	–	–	–	–	–	–
NC1=NCN(C2OC(CO)C(O)C2O)C(=O)N1 (stereo not drawn)	381 µM	1060	–	1760	1530	197	TGI (P388/ADR leukemia): 196 µM; TGI (SN12K1 renal): 619 µM; TGI (P388 leukemia): 229 µM
COc1cccc(/C=N\NC(=O)C(C)SC(C)C(=O)N/N=C/c2cccc(OC)c2)c1 (stereo not drawn)	–	–	> 100	> 100	> 100	> 100	–
O=C(O)CCCCC1CCSS1 (stereo not drawn)	> 100 µM	–	–	–	–	–	–
NCCCN=c1ccc2c3c1c(O)c1c(O)ccc(=O)c1c3[nH]n2CCNCCO	8.37 µM	17.8	–	> 250	38.4	6.05	TGI (P388/ADR leukemia): 100 µM; TGI (SN12K1 renal): 16.3 µM; TGI (P388 leukemia): 6.13 µM
Cc1nc2ccccc2c(=O)n1/N=C(\N=Nc1cc(Cl)ccc1Cl)c1ccccc1	–	44.9	> 100	> 100	4.47	> 100	–
COc1ccc(C)cc1NC(=S)C#N	> 100 µM	–	–	–	–	–	–

Structure (SMILES)	TGI (MDA-N)	TGI (HOP-18 NSCLC) [µM]	TGI (LXFL 529 NSCLC) [µM]	TGI (M19-MEL melanoma) [µM]	TGI (KM20L2 colon) [µM]	TGI (XF 498 CNS) [µM]	also measured
COc1cc2c(c(OC)c1OC)C(=O)NCCC2	–	> 100	> 100	> 100	> 100	> 100	TGI (P388/ADR leukemia): > 100 µM; TGI (SN12K1 renal): > 100 µM; TGI (P388 leukemia): > 100 µM
N#CCc1cccc(CC#N)c1Br	–	–	> 100	–	> 100	> 100	–
COc1cc2c3cc1Oc1c(OC)c(OC)cc4c1C(Cc1ccc(O)c(c1)Oc1ccc(cc1)CC3N(C)CC2)N(C)CC4 (stereo not drawn)	60 µM	–	–	–	–	–	–
C[C@H]1CC[P+](C)(c2ccccc2)C1 (stereo partly drawn)	–	> 100	> 100	> 100	> 100	–	–
Cc1cc(C)nc(NS(=O)(=O)c2ccc(Nc3c4ccccc4nc4c(C(=O)NCCN(C)C)cccc34)cc2)n1	–	–	20	14.9	20.2	26.8	TGI (RXF-631 renal): 18 µM
O=C1OC(=O)C([Se]c2ccccc2)=C1[Se]c1ccccc1	–	> 100	> 100	–	> 100	–	TGI (RXF-631 renal): > 100 µM
O=C1C(=O)C2(CC1S(=O)(=O)c1ccccc1)c1ccccc1-c1ccccc12 (stereo not drawn)	–	> 10	31	–	> 100	–	–
COc1cc(OC)c2c(=O)c3cccc([N+](=O)[O-])c3n(C)c2c1	–	–	> 100	–	> 100	> 100	TGI (RXF-631 renal): > 100 µM
O=C(O)c1ccccc1NCn1c(=S)sc2ccccc21	> 100 µM	–	–	–	–	–	–
N#[N+]c1ccc(Nc2ccccc2)cc1	> 50 µg/mL	–	–	–	–	–	GI50 (MDA-N): > 50 µg/mL
Cc1ccc(S(=O)C(C)C(Cl)c2ccccc2)cc1 (stereo not drawn)	–	> 100	> 100	> 100	> 100	–	–
C=C1CC[C@H]2C(C)=CC[C@H]3C(=C)C(=O)O[C@@H]3[C@@H]12	> 100 µM	–	–	–	–	–	–
O=C1CCC(=O)N1Sc1ccccc1	–	–	–	> 100	> 100	–	TGI (RXF-631 renal): > 100 µM
O=C(O)CSc1n[nH]c(-c2ccco2)n1	–	–	> 100	> 100	> 100	> 100	TGI (RXF-631 renal): > 100 µM
CCCCCC[C@H]1C(=O)O[C@H](C)[C@H](NC(=O)c2cccc(NC=O)c2OC)C(=O)O[C@@H](C)[C@@H]1OC(=O)CCC (tested in a mixture with another compound)	45.2 µM	–	–	–	–	–	GI50 (MDA-N): 11.1 µM
O=NNc1ccc(S(=O)(=O)c2ccc3ccccc3c2)cn1	> 100 µM	–	–	–	–	–	–
Cc1ccc(OC(=O)N2C/C(=C\c3ccccc3)C(=O)/C(=C/c3ccccc3)C2)cc1	15.3 µM	> 91.2	30.6	18.9	> 100	49.1	TGI (RXF-631 renal): > 100 µM
CN(C)CCN1CCc2c([nH]c3ccccc23)C1c1cccnc1 (stereo not drawn)	–	> 100	–	> 100	> 100	–	–
